{"source": "paper PMC11279468", "about": "“Exploring a New Generation of Pyrimidine and Pyridine Derivatives as Anti-Influenza Agents Targeting the Polymerase PA–PB1 Subunits Interaction” (Pharmaceutics, 2024)", "key": {"[1]": {"tested_on": "Influenza virus strain A/PR/8/34 (H1N1)", "test": "microbe, parasite or virus in culture", "settings": "unidentified influenza virus, MDCK, read-out: EC50 (PRA)"}, "in vitro": {"test": "in vitro", "settings": "dog", "method": "(§1) The cytotoxicity of compounds was tested in MDCK cells using the 3-(4,5-dimethylthiazol-2-yl)-2,5-diphenyl tetrazolium bromide (MTT) method, as previously reported [32]. Briefly, MDCK cells (seeded at a density of 2 × 10^4 per well) were grown in 96-well plates for 24 h and then treated with serial dilutions of test compounds, or DMSO as a control, in DMEM supplemented with 10% FBS. After incubation at 37 °C for 48 h, 5 mg/mL of MTT (Sigma, Tokyo, Japan) in PBS was added into each well and incubated at 37 °C for a further 4 h. Successively, a solubilization solution was added to lyse the cells and incubated overnight at 37 °C. Finally, optical density was read at the wavelength of 570 nm on a microtiter plate reader (MultiSkan FC, ThermoFisher Scientific)."}, "[2]": {"tested_on": "Influenza virus strain A/PR/8/34 (H1N1)"}, "[3]": {"target": "PA–PB1 interaction (6His-PA(239–716) / GST-PB1(1–25)) (Influenza A virus, UniProt P03433)", "test": "biochemical", "format": "binding"}, "MDCK cells [4]": {"tested_on": "MDCK cells", "method": "as §1"}, "MDCK cells [5]": {"tested_on": "MDCK cells", "test": "Cytotoxicity assay (MTT) in MDCK cells", "settings": "read-out: CC50 (MDCK Cells); MTT assay, MDCK cells, 48 h; 50% decrease in cell viability", "method": "as §1"}, "[6]": {"test": "Cytotoxicity assay (MTT) in MDCK cells", "method": "as §1"}}, "note": "Where two headings read alike, the source gives them in different places.", "data": [{"compound": "Cc1cccc(NC(=O)CSc2nc(-c3ccccc3)cc(-c3ccc(F)cc3)n2)c1", "note": "[Compound 2d, 2-{[4-(4-Fluorophenyl)-6-phenylpyrimidin-2-yl]thio}-N-(m-tolyl)acetamide]", "values": [{"measurement": "EC50", "setting": "[1]", "result": "2.8 ± 0.6", "unit": "µM"}, {"measurement": "CC50 at 48 h", "setting": "in vitro", "result": "> 250", "unit": "µM"}, {"measurement": "melting point", "result": "186 to 190", "unit": "°C"}, {"measurement": "antiviral activity relative to RBV", "setting": "[2]", "result": "almost five-fold more active than RBV"}, {"measurement": "IC50", "setting": "[3]", "result": "90.1 ± 30.2", "unit": "µM"}]}, {"compound": "Cc1cccc(NC(=O)CSc2nc(Sc3ccccc3)cc(-c3ccc(Cl)cc3)n2)c1", "note": "[Compound 2j, 2-{[4-(4-Chlorophenyl)-6-(phenylthio)pyrimidin-2-yl]thio}-N-(m-tolyl)acetamide]", "values": [{"measurement": "EC50", "setting": "[1]", "result": "32.9 ± 4.1", "unit": "µM"}, {"measurement": "CC50 at 48 h", "setting": "in vitro", "result": "16 ± 4.2", "unit": "µM"}, {"measurement": "melting point", "result": "150 to 154", "unit": "°C"}, {"measurement": "cytotoxicity (in words)", "setting": "MDCK cells [4]", "result": "high cytotoxicity"}, {"measurement": "IC50", "setting": "[3]", "result": "> 200", "unit": "µM"}]}, {"compound": "Cc1cccc(NC(=O)CSc2nc(Sc3ccccc3)cc(-c3ccc(F)cc3)n2)c1", "note": "[Compound 2k]", "values": [{"measurement": "EC50", "setting": "[1]", "result": "16.4 ± 1.9", "unit": "µM"}, {"measurement": "CC50 at 48 h", "setting": "in vitro", "result": "48.2 ± 2.5", "unit": "µM"}, {"measurement": "melting point", "result": "146 to 147", "unit": "°C"}, {"measurement": "cytotoxicity (in words)", "setting": "MDCK cells [4]", "result": "high cytotoxicity"}, {"measurement": "IC50", "setting": "[3]", "result": "159 ± 29", "unit": "µM"}]}, {"compound": "Cc1cccc(NC(=O)CSc2nc(C(=O)Nc3ccccc3)cc(-c3ccccc3)n2)c1", "note": "[Compound 2l, 2-{[2-oxo-2-(m-tolylamino)ethyl]thio}-N,6-diphenylpyrimidine-4-carboxamide]", "values": [{"measurement": "EC50", "setting": "[1]", "result": "13 ± 5.5", "unit": "µM"}, {"measurement": "CC50 at 48 h", "setting": "in vitro", "result": "46.3 ± 10.4", "unit": "µM"}, {"measurement": "melting point", "result": "181 to 182", "unit": "°C"}, {"measurement": "cytotoxicity (in words)", "setting": "MDCK cells [4]", "result": "high cytotoxicity"}, {"measurement": "IC50", "setting": "[3]", "result": "125 ± 37", "unit": "µM"}]}, {"compound": "CCC(CC)O[C@@H]1C=C(C(=O)O)C[C@H](N)[C@H]1NC(C)=O", "note": "[OSC, oseltamivir carboxylate]", "values": [{"measurement": "CC50", "setting": "MDCK cells [5]", "result": "> 250", "unit": "µM"}, {"measurement": "EC50", "setting": "[2]; read-out: EC50 (PRA)", "result": "0.04 ± 0.01", "unit": "µM"}]}, {"compound": "CSCC[C@H](N)C(=O)N[C@@H](CC(=O)O)C(=O)N[C@H](C(=O)N[C@@H](CC(N)=O)C(=O)N1CCC[C@H]1C(=O)N[C@H](C(=O)N[C@@H](CC(C)C)C(=O)N[C@@H](CC(C)C)C(=O)N[C@@H](Cc1ccccc1)C(=O)N[C@@H](CC(C)C)C(=O)N[C@@H](CCCCN)C(=O)N[C@H](C(=O)N1CCC[C@H]1C(=O)N[C@@H](C)C(=O)N[C@@H](CCC(N)=O)C(=O)N[C@@H](Cc1ccc(O)cc1)C(=O)NCC(=O)N[C@@H](CCCNC(=N)N)C(=O)N[C@@H](CCCCN)C(=O)N[C@@H](CCCCN)C(=O)N[C@@H](CCCNC(=N)N)C(=O)N[C@@H](CCCNC(=N)N)C(=O)N[C@@H](CCC(N)=O)C(=O)N[C@@H](CCCNC(=N)N)C(=O)N[C@@H](CCCNC(=N)N)C(=O)N[C@@H](CCCNC(=N)N)C(=O)N1CCC[C@H]1C(=O)N1CCC[C@H]1C(=O)O)C(C)C)[C@@H](C)O)C(C)C", "note": "[PB1(1–15)-Tat peptide]", "values": [{"measurement": "CC50", "setting": "[6]", "result": "> 250", "unit": "µM"}, {"measurement": "EC50", "setting": "[2]; Influenza virus strain A/PR/8/34, 24 h", "result": "49.7 ± 5.1", "unit": "µM"}]}, {"compound": "NC(=O)c1ncn(C2O[C@H](CO)[C@@H](O)[C@H]2O)n1", "note": "(stereo partly drawn) [RBV, 1-D-ribofuranosyl-1,2,4-triazole-3-carboxamide, reference compound]", "values": [{"measurement": "EC50", "setting": "[1]", "result": "12.8 ± 3.2", "unit": "µM"}, {"measurement": "CC50 at 48 h", "setting": "[6]; dog, MDCK cells", "result": "> 250", "unit": "µM"}]}]}
